In one data set the target is T1, HDAC6 (Homo sapiens, UniProt Q9UBN7).
T1 construct: purchased BPS Biosciences
T1 sequence (Q9UBN7 1-1215): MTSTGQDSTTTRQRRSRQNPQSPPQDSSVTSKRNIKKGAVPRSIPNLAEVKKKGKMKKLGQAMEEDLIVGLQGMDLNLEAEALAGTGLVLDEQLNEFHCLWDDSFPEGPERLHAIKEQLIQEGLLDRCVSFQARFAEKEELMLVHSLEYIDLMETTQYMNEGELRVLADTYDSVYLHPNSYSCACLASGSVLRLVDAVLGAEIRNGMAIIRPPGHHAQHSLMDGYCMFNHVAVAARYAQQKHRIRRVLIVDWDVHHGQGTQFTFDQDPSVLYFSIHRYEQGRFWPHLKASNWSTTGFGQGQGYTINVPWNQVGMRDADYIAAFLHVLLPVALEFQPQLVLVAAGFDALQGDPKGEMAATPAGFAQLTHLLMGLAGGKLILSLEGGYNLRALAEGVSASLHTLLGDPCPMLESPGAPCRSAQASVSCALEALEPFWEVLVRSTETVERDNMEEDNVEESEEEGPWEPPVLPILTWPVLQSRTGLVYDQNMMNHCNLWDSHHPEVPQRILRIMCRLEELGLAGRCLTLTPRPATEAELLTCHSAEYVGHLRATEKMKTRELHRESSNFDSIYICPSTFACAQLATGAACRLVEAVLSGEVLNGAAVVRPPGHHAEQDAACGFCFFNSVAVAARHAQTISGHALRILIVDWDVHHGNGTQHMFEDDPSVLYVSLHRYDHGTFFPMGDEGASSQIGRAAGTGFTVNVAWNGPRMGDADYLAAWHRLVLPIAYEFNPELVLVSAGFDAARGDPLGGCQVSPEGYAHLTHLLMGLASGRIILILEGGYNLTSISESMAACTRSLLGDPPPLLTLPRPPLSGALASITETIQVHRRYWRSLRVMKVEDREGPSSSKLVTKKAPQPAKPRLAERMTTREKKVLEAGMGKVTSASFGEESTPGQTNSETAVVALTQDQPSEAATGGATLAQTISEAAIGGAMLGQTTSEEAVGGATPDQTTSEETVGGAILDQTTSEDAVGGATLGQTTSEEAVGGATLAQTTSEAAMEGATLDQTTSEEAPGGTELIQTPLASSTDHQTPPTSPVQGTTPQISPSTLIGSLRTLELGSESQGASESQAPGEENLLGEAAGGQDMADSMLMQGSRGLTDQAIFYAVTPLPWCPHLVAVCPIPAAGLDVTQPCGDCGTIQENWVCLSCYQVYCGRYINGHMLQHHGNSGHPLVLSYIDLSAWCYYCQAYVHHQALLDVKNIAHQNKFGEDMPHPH
Put plainly: HDAC enzyme assay, HDAC6. The class given is biochemical. The settings on record: 2 ng/ml enzyme, 14 μM tripeptide substrate; given as a range. On the procedure: (§1) Compounds for testing were diluted in DMSO to 50 fold the final concentration and a ten-point three-fold dilution series was made. The compounds were diluted in assay buffer (50 mM HEPES, pH 7.4, 100 mM KCl, 0.001% Tween-20, 0.05% BSA, 20 ⊐M TCEP) to 6-fold their final concentration. The HDAC enzymes (purchased from BPS Biosciences) were diluted to 1.5-fold their final concentration in assay buffer. The tripeptide substrate and trypsin at 0.05 μM final concentration were diluted in assay buffer at 6-fold their final concentration. The final enzyme concentrations used in these assays were 3.3 ng/ml (HDAC1), 0.2 ng/ml (HDAC2), 0.08 ng/ml (HDAC3) and 2 ng/ml (HDAC6). The final substrate concentrations used were 16 μM (HDAC1), 10 μM (HDAC2), 17 μM (HDAC3) and 14 μM (HDAC6).
(§2) Five μL of compounds and 20 μL of enzyme were added to wells of a black, opaque 384 well plate in duplicate. Enzyme and compound were incubated together at room temperature for 10 minutes. Five μL of substrate was added to each well, the plate was shaken for 60 seconds and placed into a Victor 2 microtiter plate reader. The development of fluorescence was monitored for 60 min and the linear rate of the reaction was calculated. The IC50 was determined using Graph Pad Prism by a four parameter curve fit.

A short description of data set [1]: Rat pharmacokinetic studies. The class given is in vivo. Conditions: male SD rats, IV 1 mg/kg, plasma. On the procedure: Male SD rats were fasted overnight. Compounds of the invention were dissolved in dimethyl acetamide at 10 times the final concentration, then Solutol HS 15 (BASF) was added to a final concentration of 10%. Finally 80% saline was added and vortexed to achieve a clear solution. For the IV dosing three animals were injected via the foot dorsal vein with 1 mg/kg compound. For the PO dosing 5 mg/kg of compound was delivered by oral gavage. Blood was collected via the tail vein into K2EDTA tubes at 5 minutes, 15 minutes, 30 minutes, 1 hour, 2 hours, 4 hours, 8 hours and 24 hours after dosing. The blood was centrifuged at 2000 g for 5 minutes at 4° C. to obtain plasma. The plasma was extracted with acetonitrile and the level of compound was analyzed by LC/MS/MS. The level of compound in plasma was calculated from a standard curve in rat plasma. The IV clearance and area under the curve were calculated using WinNonLin software. The dose adjusted area under the curve for the IV and oral dosing were used to calculate the oral bioavailability.

A further data set concerns the target T2, HDAC2 (Homo sapiens, UniProt Q92769).
T2 construct: purchased BPS Biosciences
Put plainly: HDAC enzyme assay, HDAC2. The class given is biochemical. Conditions: 0.2 ng/ml enzyme, 10 μM tripeptide substrate; given as a range. On the procedure: as §1, §2

A further data set has as its target T3, HDAC1 (Homo sapiens, UniProt Q13547).
T3 construct: purchased BPS Biosciences
Put plainly: HDAC enzyme assay, HDAC1. The class given is biochemical. Conditions: 3.3 ng/ml enzyme, 16 μM tripeptide substrate; given as a range. On the procedure: as §1, §2

A further data set addresses T4, HDAC3 (Homo sapiens, UniProt O15379).
T4 construct: purchased BPS Biosciences
Nature of the data set: HDAC enzyme assay, HDAC3. The class given is biochemical. The settings on record: 0.08 ng/ml enzyme, 17 μM tripeptide substrate; given as a range. On the procedure: as §1, §2

Data set [2] can be described thus: Mouse pharmacokinetic studies. Conditions: male C57BL/6 mice, intraperitoneal 5 mg/kg; for Brain AUC: brain homogenate; for AUC / Kp: mouse, ip; for AUC: plasma; for Kp: from AUC values of brain and plasma, read-out: Brain/plasma ratio. The class given is in vivo. On the procedure:
Male C57BL/6 mice were fasted overnight. Compounds were dissolved in dimethyl acetamide at 10 times the final concentration, then Solutol HS 15 (BASF) was added to a final concentration of 10%. Finally 80% saline was added and vortexed to achieve a clear solution. Fifteen animals were injected intraperitonealy with 5 mg/kg compound. Blood was collected by retro-orbital bleed at 5 minutes, 15 minutes, 30 minutes, 1 hour, 2 hours, 4 hours, 8 hours and 24 hours after dosing. At 5 minutes, 30 minutes, 1 hour and 4 hours after dosing three animals per time point were sacrificed and brains were removed. The blood was centrifuged at 2000 g for 5 minutes at 4° C. to obtain plasma. Brain samples were homogenized in PBS. The plasma and brain homogenate were extracted with acetonitrile and the level of compound was analyzed by LC/MS/MS. The level of compound in plasma was calculated from a standard curve in rat plasma and the level in brain was calculated from a standard curve in brain homogenate. The area under the curve in plasma and brain were calculated using WinNonLin software. The brain to plasma ratio was determined using the area under the curve values for the two compartments.

The results in this text go back to patent publication US10370324B2, “Phenyl and pyridinyl hydroxamic acids” (Acetylon Pharmaceuticals, Inc., priority 2016, dated 2019).

T2 sequence (Q92769 whole entry): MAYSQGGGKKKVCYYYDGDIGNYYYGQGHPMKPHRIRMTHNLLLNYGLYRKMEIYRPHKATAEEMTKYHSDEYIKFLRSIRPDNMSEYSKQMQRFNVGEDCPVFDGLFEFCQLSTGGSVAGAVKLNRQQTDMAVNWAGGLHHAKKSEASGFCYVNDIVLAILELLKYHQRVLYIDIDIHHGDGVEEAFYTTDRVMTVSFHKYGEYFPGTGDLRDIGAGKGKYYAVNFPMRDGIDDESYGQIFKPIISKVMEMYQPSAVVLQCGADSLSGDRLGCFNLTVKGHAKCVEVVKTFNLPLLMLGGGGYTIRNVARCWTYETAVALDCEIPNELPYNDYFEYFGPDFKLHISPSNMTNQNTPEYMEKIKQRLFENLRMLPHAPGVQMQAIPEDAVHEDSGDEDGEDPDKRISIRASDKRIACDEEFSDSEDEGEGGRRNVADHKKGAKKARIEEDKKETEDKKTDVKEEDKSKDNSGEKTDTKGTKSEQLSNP
T4 sequence (O15379 whole entry): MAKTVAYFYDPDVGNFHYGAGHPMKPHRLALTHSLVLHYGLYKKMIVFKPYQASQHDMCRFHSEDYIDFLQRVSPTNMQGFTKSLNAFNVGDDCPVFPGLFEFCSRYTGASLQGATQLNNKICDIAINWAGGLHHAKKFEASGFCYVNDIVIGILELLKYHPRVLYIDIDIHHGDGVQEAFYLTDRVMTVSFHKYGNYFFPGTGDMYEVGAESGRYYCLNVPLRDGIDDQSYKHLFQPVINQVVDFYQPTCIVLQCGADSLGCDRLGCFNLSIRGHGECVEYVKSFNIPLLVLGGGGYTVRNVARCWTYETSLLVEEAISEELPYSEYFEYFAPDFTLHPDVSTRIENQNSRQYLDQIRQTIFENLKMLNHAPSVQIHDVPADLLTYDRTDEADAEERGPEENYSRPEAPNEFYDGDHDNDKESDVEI
T4 sequence (Q9Y618 395-489 partner limits assumed): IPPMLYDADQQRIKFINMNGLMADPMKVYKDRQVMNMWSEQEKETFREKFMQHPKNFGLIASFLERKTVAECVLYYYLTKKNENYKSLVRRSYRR
T3 sequence (Q13547 whole entry): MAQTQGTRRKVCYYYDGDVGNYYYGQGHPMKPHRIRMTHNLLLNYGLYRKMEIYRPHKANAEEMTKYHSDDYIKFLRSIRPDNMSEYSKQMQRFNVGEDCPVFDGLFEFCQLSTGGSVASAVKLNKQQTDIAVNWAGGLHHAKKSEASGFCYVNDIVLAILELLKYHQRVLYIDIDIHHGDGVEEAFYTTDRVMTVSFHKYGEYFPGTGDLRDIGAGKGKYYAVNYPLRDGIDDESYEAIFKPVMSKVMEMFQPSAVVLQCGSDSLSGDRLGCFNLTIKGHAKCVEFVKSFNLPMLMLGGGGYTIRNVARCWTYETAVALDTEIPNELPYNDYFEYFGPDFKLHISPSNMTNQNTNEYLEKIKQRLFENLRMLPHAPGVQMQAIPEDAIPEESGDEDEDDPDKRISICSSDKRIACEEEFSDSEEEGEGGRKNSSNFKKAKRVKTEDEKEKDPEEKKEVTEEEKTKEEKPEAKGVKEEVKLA

The IC50 is the point on the concentration scale where inhibition reaches its midpoint. A lower IC50 goes with greater potency in that assay. A word on the clearance: it is the volume of plasma or blood freed of the substance per unit of time. On to `COc1ccc(Cl)cc1CNc1ccc(C(=O)NO)cc1` [Compound 001], for which the IC50 on HDAC6 is 1 to 6 nM; against HDAC2, 200 to 400 nM; against HDAC1 it was 200 to 400 nM; on HDAC3 it was 200 to 400 nM. Moreover, the clearance in data set [1] is 16.7 to 83.3 mL/min/kg.

Broadly, the AUC is the area under the concentration-time curve, a measure of exposure. Turning to `O=C(NO)c1ccc(NC(c2ccccc2)c2ccccc2)cn1` [Compound 002], in data set [2], the “Brain AUC” value was in the range of 450 to 600 ng·h/mL, the AUC fell in the range of 200 to 250 ng·h/mL and the Kp was 1 to 5.

For `O=C(NO)c1ccc(NCc2cc(Cl)ccc2Cl)cc1` [Compound 004], the IC50 on HDAC6 was in the range of 4 to 8 nM; against HDAC2, 100 to 200 nM; against HDAC1, 100 to 200 nM; against HDAC3, 100 to 200 nM.

Consider `COc1ccc(F)cc1CNc1ccc(C(=O)NO)cc1` [Compound 005], for which the IC50 on HDAC6 fell in the range of 1 to 6 nM; at HDAC2, 500 to 800 nM; at HDAC1, 500 to 800 nM; on HDAC3 it was 500 to 800 nM. In data set [1], this compound yielded a clearance of 167 to 333 mL/min/kg.

`COc1ccc(OC)c(CNc2ccc(C(=O)NO)cc2)c1` [Compound 006]: the IC50 on HDAC6 was in the range of 30 to 40 nM; at HDAC2, 900 to 1100 nM; against HDAC1, 450 to 600 nM; at HDAC3, 900 to 1100 nM.

Regarding `O=C(NO)c1ccc(NCc2cc(F)ccc2F)cc1` [Compound 007], the IC50 on HDAC6 was 4 to 8 nM; at HDAC2 it was 450 to 600 nM; at HDAC1, 450 to 600 nM; on HDAC3 it was 700 to 800 nM.

Consider `O=C(NO)c1ccc(NC2(c3cc(F)ccc3F)CCOCC2)cc1` [Compound 008], for which the IC50 was 0.1 to 1 nM on HDAC6, 200 to 300 nM on HDAC2, 150 to 250 nM at HDAC1 and 1000 to 1100 nM on HDAC3. Besides, the clearance in data set [1] was in the range of 83.3 to 167 mL/min/kg.

Take `O=C(NO)c1ccc(NC2(c3ccccc3)CC2)cc1` [Compound 009]: the IC50 at HDAC6 is 0.5 to 2.5 nM; at HDAC2, 250 to 350 nM; on HDAC1, 50 to 100 nM; against HDAC3, 400 to 500 nM. This compound yielded a clearance in data set [1] of 50 to 117 mL/min/kg.

Consider `O=C(NO)c1ccc(NC2(c3ccccc3)CCCCC2)cc1` [Compound 010], for which the IC50 against HDAC6 was 4 to 8 nM; against HDAC2 it was 1500 to 2000 nM; on HDAC1, 1000 to 2000 nM; against HDAC3, 6000 to 7000 nM. Also, the clearance in data set [1] lay within 33.3 to 66.7 mL/min/kg.

With `O=C(NO)c1ccc(NCc2ccccc2)cc1` [Compound 011], the IC50 against HDAC6 is 15 to 25 nM; at HDAC2, 800 to 900 nM; against HDAC1 it was 700 to 800 nM; against HDAC3, 1200 to 1300 nM. The compound also returned a clearance in data set [1] of 91.7 to 117 mL/min/kg.

With `O=C(NO)c1ccc(NCc2ccccc2)cn1` [Compound 012], in data set [2], the “Brain AUC” value is 100 to 150 ng·h/mL, the AUC was 75 to 125 ng·h/mL and the Kp is 1 to 3.

Consider `O=C(NO)c1ccc(N(c2ccccc2)c2ccccc2)cn1` [Compound 013], for which, in data set [2], the “Brain AUC” value lay in the range of 600 to 800 ng·h/mL, the AUC lay in the range of 150 to 250 ng·h/mL and the Kp was 2 to 6.
